Reference: US20230072683A1, “PYRIDO-PYRIMIDIN DERIVATIVES AND PHARMACEUTICAL COMPOSITION, FOR USE IN PREVENTING OR TREATING PI3 KINASE RELATED DISEASES, COMPRISING SAME AS ACTIVE INGREDIENT” (BORYUNG PHARMACEUTICAL CO., LTD, priority 2019, published 2023)

Assays:
[1] = target: PI3K-δ (PI3K(p1108/p857) (h)) (Homo sapiens, UniProt O00329); experiment: Evaluation of inhibitory activity against PI3K-δ (HTRF kinase assay); type: biochemical; conditions: for inhibition at 0.01 µM: compound concentration 0.01 μM, read-out: EXP_VALUE(% Inhibition) PI3K-δ 0.01 μM; for inhibition at 0.1 µM: compound concentration 0.1 μM, read-out: EXP_VALUE(% Inhibition) PI3K-δ 0.1 μM
PI3K-δ (PI3K(p1108/p857) (h)), sequence (O00329 whole entry, the tested form may be a part): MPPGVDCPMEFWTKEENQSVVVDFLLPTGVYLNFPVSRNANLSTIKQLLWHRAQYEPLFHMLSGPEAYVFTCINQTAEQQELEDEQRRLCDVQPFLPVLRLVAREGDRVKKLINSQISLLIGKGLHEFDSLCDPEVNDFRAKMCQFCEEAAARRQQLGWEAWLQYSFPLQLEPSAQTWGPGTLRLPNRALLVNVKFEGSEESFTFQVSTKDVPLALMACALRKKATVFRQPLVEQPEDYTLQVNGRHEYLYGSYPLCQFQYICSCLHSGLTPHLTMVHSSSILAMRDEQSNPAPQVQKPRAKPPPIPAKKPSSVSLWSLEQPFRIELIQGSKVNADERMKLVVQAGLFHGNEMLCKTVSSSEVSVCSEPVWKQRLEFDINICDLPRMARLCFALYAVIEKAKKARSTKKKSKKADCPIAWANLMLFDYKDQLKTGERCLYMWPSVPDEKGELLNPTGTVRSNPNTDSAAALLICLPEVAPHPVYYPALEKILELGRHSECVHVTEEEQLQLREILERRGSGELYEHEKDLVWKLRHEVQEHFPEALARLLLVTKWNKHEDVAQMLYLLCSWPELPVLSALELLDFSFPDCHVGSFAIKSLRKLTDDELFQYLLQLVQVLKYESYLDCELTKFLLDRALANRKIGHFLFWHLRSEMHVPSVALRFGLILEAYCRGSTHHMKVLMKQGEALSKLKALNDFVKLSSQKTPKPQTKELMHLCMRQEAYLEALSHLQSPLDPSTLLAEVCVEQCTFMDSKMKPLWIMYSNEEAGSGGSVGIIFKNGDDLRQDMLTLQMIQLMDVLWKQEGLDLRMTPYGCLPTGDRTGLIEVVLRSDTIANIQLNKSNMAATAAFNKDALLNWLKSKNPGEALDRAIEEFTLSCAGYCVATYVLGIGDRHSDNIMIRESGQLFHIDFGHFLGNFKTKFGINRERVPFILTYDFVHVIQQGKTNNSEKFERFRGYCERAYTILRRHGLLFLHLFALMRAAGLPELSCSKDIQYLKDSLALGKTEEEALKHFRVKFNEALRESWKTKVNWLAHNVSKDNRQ
PI3K-δ (PI3K(p1108/p857) (h)), sequence (P27986 whole entry partner, the tested form may be a part): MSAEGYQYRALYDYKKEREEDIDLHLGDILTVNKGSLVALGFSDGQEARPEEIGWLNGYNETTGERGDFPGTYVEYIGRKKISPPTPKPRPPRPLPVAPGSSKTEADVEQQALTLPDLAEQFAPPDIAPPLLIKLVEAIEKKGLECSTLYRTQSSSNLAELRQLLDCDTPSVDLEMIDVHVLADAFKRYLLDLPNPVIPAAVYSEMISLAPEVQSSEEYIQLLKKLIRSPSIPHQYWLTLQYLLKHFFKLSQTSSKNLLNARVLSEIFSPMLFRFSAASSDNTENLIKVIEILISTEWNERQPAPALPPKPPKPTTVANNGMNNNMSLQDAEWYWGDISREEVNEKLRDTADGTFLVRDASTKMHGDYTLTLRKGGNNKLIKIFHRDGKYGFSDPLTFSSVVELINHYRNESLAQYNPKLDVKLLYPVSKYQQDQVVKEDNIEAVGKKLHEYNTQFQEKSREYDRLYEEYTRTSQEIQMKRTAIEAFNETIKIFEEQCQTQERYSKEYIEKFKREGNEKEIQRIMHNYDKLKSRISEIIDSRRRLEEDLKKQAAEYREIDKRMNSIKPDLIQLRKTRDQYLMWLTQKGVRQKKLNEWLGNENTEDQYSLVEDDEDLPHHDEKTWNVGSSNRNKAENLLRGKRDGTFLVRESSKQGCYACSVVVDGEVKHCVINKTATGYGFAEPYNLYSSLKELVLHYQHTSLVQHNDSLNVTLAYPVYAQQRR
Procedure, shortened: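 HTRF read-out (665/620 nm ratio ×10000) used Eu-labelled anti-GST, GST-tagged GRP1 PH domain and streptavidin-allophycocyanin after EDTA/PIP3 stop.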

DNA-PK(h) = DNA-PK(h) (Homo sapiens, UniProt P78527); experiment: Evaluation of inhibitory activity against DNA-PK (HTRF kinase assay, GST-cMyc-p53 substrate); type: biochemical; conditions: for inhibition at 0.01 µM: compound concentration 0.01 μM, read-out: EXP_VALUE(% Inhibition) DNA-PK(h) 0.01 μM; for inhibition at 0.1 µM: compound concentration 0.1 μM, read-out: EXP_VALUE(% Inhibition) DNA-PK(h) 0.1 μM
Procedure, shortened: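 p53 Ser15 phosphorylation by human DNA-PK was measured by time-resolved FRET ratio (665/620 nm ×10000) using Eu-labelled anti-phospho-Ser15 and d2 anti-GST antibodies. Substrate GST-cMyc-p53 at 50 μM; Mg/ATP-initiated, 30 min at room temperature, EDTA stop.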

Row | Compound | inhibition at 0.01 µM [1] [%] | inhibition at 0.01 µM (DNA-PK(h)) [%] | inhibition at 0.1 µM [1] [%] | inhibition at 0.1 µM (DNA-PK(h)) [%]
1 | C[C@H](Nc1ncnc2[nH]ccc(=O)c12)c1c(Cl)c2cccc(-c3nc(N)nc(N)n3)c2c(=O)n1-c1ccccc1 [Example 293, (S)-4-((1-(4-chloro-8-(4,6-diamino-1,3,5-triazin-2-yl)-1-oxo-2-phenyl-1,2-dihydroisoquinolin-3-yl)ethyl)amino)pyrido[2,3-d]pyrimidin-5(8H)-one] | 24 | 1 | – | –
2 | C[C@H](Nc1ncnc2[nH]ccc(=O)c12)c1c(Cl)c2cccc(N)c2c(=O)n1-c1ccccc1 [Example 294, (S)-4-((1-(8-amino-4-chloro-1-oxo-2-phenyl-1,2-dihydroisoquinolin-3-yl)ethyl)amino)pyrido[2,3-d]pyrimidin-5(8H)-one] | 65 | 49 | – | –
3 | C[C@H](Nc1ncnc2[nH]ccc(=O)c12)c1c(Cl)c2cccc(NC(=O)C(C)(C)C)c2c(=O)n1-c1ccccc1 [Example 295, (S)—N-(4-chloro-1-oxo-3-(1-((5-oxo-5,8-dihydropyrido[2,3-d]pyrimidin-4-yl)amino)ethyl)-2-phenyl-1,2-dihydroisoquinolin-8-yl) pivalamide] | 24 | 56 | – | –
4 | CC(=O)Nc1cccc2c(Cl)c([C@H](C)Nc3ncnc4[nH]ccc(=O)c34)n(-c3ccccc3)c(=O)c12 [Example 296, (S)—N-(4-chloro-1-oxo-3-(1-((5-oxo-5,8-dihydropyrido[2,3-d]pyrimidin-4-yl)amino)ethyl)-2-phenyl-1,2-dihydroisoquinolin-8-yl) acetamide] | 46 | 30 | – | –
5 | CCCCC(=O)Nc1cccc2c(Cl)c([C@H](C)Nc3ncnc4[nH]ccc(=O)c34)n(-c3ccccc3)c(=O)c12 [Example 297, (S)—N-(4-chloro-1-oxo-3-(1-((5-oxo-5,8-dihydropyrido[2,3-d]pyrimidin-4-yl)amino)ethyl)-2-phenyl-1,2-dihydroisoquinolin-8-yl)pentanamide] | 9 | 45 | – | –
6 | C[C@H](Nc1ncnc2[nH]ccc(=O)c12)c1c(Cl)c2cccc(NC(=O)C3CCC3)c2c(=O)n1-c1ccccc1 [Example 298, (S)—N-(4-chloro-1-oxo-3-(1-((5-oxo-5,8-dihydropyrido[2,3-d]pyrimidin-4-yl)amino)ethyl)-2-phenyl-1,2-dihydroisoquinolin-8-yl)cyclobutanecarboxamide] | 11 | 50 | – | –
7 | C[C@H](Nc1ncnc2[nH]ccc(=O)c12)c1c(Cl)c2cccc(NC(=O)c3ccccc3)c2c(=O)n1-c1ccccc1 [Example 299, (S)—N-(4-chloro-1-oxo-3-(1-((5-oxo-5,8-dihydropyrido[2,3-d]pyrimidin-4-yl)amino)ethyl)-2-phenyl-1,2-dihydroisoquinolin-8-yl)benzamide] | 13 | 17 | – | –
8 | C[C@H](Nc1ncnc2[nH]ccc(=O)c12)c1c(Cl)c2cccc(NS(C)(=O)=O)c2c(=O)n1-c1ccccc1 [Example 300, (S)—N-(4-chloro-1-oxo-3-(1-((5-oxo-5,8-dihydropyrido[2,3-d]pyrimidin-4-yl)amino)ethyl)-2-phenyl-1,2-dihydroisoquinolin-8-yl) methanesulfonamide] | 63 | 44 | – | –
9 | C[C@H](Nc1ncnc2[nH]ccc(=O)c12)c1c(Cl)c2cccc(NS(=O)(=O)C3CC3)c2c(=O)n1-c1ccccc1 [Example 301, (S)—N-(4-chloro-1-oxo-3-(1-((5-oxo-5,8-dihydropyrido[2,3-d]pyrimidin-4-yl)amino)ethyl)-2-phenyl-1,2-dihydroisoquinolin-8-yl)cyclopropanesulfonamide] | 41 | 14 | – | –
10 | C[C@H](Nc1ncnc2[nH]ccc(=O)c12)c1c(Cl)c2cccc(NS(=O)(=O)CC(F)(F)F)c2c(=O)n1-c1ccccc1 [Example 302, (S)—N-(4-chloro-1-oxo-3-(1-((5-oxo-5,8-dihydropyrido[2,3-d]pyrimidin-4-yl)amino)ethyl)-2-phenyl-1,2-dihydroisoquinolin-8-yl)-2,2,2-trifluoroethane-1-sulfonamide] | 16 | 16 | – | –
11 | C[C@H](Nc1ncnc2[nH]ccc(=O)c12)c1c(Cl)c2cccc(NS(=O)(=O)c3ccc(F)cc3)c2c(=O)n1-c1ccccc1 [Example 303, (S)—N(4-chloro-1-oxo-3-(1-((5-oxo-5,8-dihydropyrido[2,3-d]pyrimidin-4-yl)amino)ethyl)-2-phenyl-1,2-dihydroisoquinolin-8-yl)-4-fluorobenzenesulfonamide] | 12 | 6 | – | –
12 | C[C@H](Nc1ncnc2[nH]ccc(=O)c12)c1c(Cl)c2cccc(C#Cc3cccs3)c2c(=O)n1-c1ccccc1 [Example 304, (S)-4-((1-(4-chloro-1-oxo-2-phenyl-8-(thiophen-2-ylethynyl)-1,2-dihydroisoquinolin-3-yl)ethyl)amino)pyrido[2,3-d]pyrimidin-5(8H)-one] | 71 | 27 | 101 | 71
13 | C[C@H](Nc1ncnc2[nH]ccc(=O)c12)c1c(Cl)c2cccc(C#Cc3ccccc3)c2c(=O)n1-c1ccccc1 [Example 305, (S)-4-((1-(4-chloro-1-oxo-2-phenyl-8-(phenylethynyl)-1,2-dihydroisoquinolin-3-yl)ethyl)amino)pyrido[2,3-d]pyrimidin-5(8H)-one] | 83 | 20 | 99 | 62
14 | C[C@H](Nc1ncnc2[nH]ccc(=O)c12)c1c(Cl)c2cccc(C#Cc3ccncc3)c2c(=O)n1-c1ccccc1 [Example 306, (S)-4-((1-(4-chloro-1-oxo-2-phenyl-8-(pyridin-4-ylethynyl)-1,2-dihydroisoquinolin-3-yl)ethyl)amino)pyrido[2,3-d]pyrimidin-5(8H)-one] | 57 | 75 | 105 | 95
15 | C[C@H](Nc1ncnc2[nH]ccc(=O)c12)c1c(Cl)c2cccc(C#Cc3cccnc3)c2c(=O)n1-c1ccccc1 [Example 307, (S)-4-((1-(4-chloro-1-oxo-2-phenyl-8-(pyridin-3-ylethynyl)-1,2-dihydroisoquinolin-3-yl)ethyl)amino)pyrido[2,3-d]pyrimidin-5(8H)-one] | 83 | 80 | 114 | 95
16 | C[C@H](Nc1ncnc2[nH]ccc(=O)c12)c1c(Cl)c2cccc(C#Cc3ccccn3)c2c(=O)n1-c1ccccc1 [Example 308, (S)-4-((1-(4-chloro-1-oxo-2-phenyl-8-(pyridin-2-ylethynyl)-1,2-dihydroisoquinolin-3-yl)ethyl)amino)pyrido[2,3-d]pyrimidin-5(8H)-one] | 28.4 | 21.5 | 60.3 | 70.3
17 | C[C@H](Nc1ncnc2[nH]ccc(=O)c12)c1c(Cl)c2cccc(C#Cc3cnn(C)c3)c2c(=O)n1-c1ccccc1 [Example 309, (S)-4-((1-(4-chloro-8-((1-methyl-1H-pyrazol-4-yl)ethynyl)-1-oxo-2-phenyl-1,2-dihydroisoquinolin-3-yl)ethyl)amino)pyrido[2,3-d]pyrimidin-5(8H)-one] | 42.4 | 23.2 | 65.6 | 64.8
